# Test results reported in patent US11584748B2, “Spirocyclic compounds” (priority 2018, dated 2023).
# Target: hCereblon(M1-L442)_hDDB1(M1-H1140) (Homo sapiens (Human), UniProt Q96SW2)
# Assay: Fluorescence direct binding (tryptophan fluorescence titration)
# Conditions: 20° C., excitation 280 nm, emission 340 nm, 50 mM Hepes 7.4 200 mM NaCl; read-out: Fluorescence h-Cereblon_DDB1 Mean Kd_EQ
# Method: Fluorescence Direct Binding Protocol
# Determination of the affinities of compounds to protein containing one or more tryptophan is measurable by monitoring the fluorescence emission in direct mode. The measurements, depending on the protein available amounts, were performed either manually in a cuvette on ISS-PCI photon counting spectrofluorometer or automatically in well plates on a fluorescence plate reader device. Fluorescence titrations were performed at 20° C. in the chosen binding assay buffer by using a defined constant protein concentration against ligand concentration variations. Small aliquots of known ligand concentration solubilized in DMSO were added and the fluorescence, excited at 280 nm, was recorded at 340 nm.
# Chain of hCereblon(M1-L442)_hDDB1(M1-H1140) (Q96SW2 whole entry, looked up): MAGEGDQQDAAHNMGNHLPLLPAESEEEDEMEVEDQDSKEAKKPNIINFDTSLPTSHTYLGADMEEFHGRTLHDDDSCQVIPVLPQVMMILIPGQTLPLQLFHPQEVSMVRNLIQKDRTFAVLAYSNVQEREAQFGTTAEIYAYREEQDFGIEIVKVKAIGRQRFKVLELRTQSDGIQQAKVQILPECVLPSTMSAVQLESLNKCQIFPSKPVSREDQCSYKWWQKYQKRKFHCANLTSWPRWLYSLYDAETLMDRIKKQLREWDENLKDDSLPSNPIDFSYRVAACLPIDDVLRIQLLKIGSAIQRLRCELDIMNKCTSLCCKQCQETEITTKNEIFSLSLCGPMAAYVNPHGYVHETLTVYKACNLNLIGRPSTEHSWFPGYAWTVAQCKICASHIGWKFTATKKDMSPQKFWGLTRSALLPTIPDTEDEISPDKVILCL
# Chain of hCereblon(M1-L442)_hDDB1(M1-H1140) (Q16531 whole entry partner, looked up): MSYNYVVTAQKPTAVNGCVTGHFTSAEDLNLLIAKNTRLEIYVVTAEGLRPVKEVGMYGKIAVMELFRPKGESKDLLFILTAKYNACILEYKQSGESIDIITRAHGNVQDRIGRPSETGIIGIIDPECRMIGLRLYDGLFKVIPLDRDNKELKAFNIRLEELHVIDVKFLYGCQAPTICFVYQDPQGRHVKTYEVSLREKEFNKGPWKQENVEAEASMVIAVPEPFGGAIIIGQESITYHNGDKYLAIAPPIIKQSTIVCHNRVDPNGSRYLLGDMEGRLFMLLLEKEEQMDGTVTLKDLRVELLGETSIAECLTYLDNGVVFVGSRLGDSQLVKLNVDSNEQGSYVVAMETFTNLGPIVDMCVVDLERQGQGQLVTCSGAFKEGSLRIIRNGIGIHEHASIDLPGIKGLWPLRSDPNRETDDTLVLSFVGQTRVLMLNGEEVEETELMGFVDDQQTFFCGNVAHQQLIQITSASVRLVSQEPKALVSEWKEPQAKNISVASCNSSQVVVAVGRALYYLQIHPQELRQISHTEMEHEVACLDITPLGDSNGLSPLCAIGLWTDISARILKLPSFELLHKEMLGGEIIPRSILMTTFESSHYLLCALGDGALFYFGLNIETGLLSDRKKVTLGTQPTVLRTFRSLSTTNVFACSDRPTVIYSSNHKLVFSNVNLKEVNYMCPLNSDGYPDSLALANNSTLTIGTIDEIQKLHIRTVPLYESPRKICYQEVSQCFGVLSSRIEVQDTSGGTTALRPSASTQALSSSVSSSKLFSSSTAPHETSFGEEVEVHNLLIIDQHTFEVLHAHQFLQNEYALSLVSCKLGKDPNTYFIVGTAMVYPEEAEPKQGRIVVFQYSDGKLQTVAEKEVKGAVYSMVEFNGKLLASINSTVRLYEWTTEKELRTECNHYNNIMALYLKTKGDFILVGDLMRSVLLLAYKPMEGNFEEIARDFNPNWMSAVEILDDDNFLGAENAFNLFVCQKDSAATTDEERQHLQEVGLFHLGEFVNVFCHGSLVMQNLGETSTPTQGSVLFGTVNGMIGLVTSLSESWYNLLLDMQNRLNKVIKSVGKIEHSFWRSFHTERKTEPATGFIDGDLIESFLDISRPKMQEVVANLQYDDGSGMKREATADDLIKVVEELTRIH
row,SMILES,Kd [nM]
1,"O=C1CCC2(CCNC2)C(=O)N1 (centres unmarked) [Example 1, 2,7-diazaspiro [4.5]decane-6,8-dione]",84
2,"O=C1CC2(CCN(C(=O)[C@H]3CCCc4ccccc43)CC2)C(=O)N1 (single isomer, unassigned) [Example 77]",6
3,"O=C1CCC2(CCN(c3ccc([N+](=O)[O-])cn3)C2)C(=O)N1 (centres unmarked) [Example 30, 2-(5-nitropyridin-2-yl)-2,7-diazaspiro [4.5]decane-6,8-dione]",1
4,"COC(=O)c1csc(N2CCC3(CCC(=O)NC3=O)C2)n1 (centres unmarked) [Example 22, methyl 2-(6,8-dioxo-2,7-diazaspiro[4.5]decan-2-yl)thiazole-4-carboxylate]",44
5,"O=C1NC(=O)C2(CCN(c3nc4ccccc4s3)CC2)N1 [Example 61, 8-(benzo[d]thiazol-2-yl)-1,3,8-triazaspiro[4.5]decane-2,4-dione]",2
6,"O=C1CC2(CCN(c3nc4ccccc4s3)CC2)C(=O)N1 [Example 71, 8-(benzo[d]thiazol-2-yl)-2,8-diazaspiro[4.5] decane-1,3-dione]",2
7,"O=C1CCC2(CCN(C(=O)c3ccc4scnc4c3)C2)C(=O)N1 (centres unmarked) [Example 29, 2-(benzo[d]thiazole-5-carbonyl)-2,7-diazaspiro[4.5] decane-6,8-dione]",< 1
8,"O=C1CC2(CCN(C(=O)c3ccccc3)CC2)C(=O)N1 [Example 75, 8-benzoyl-2,8-diazaspiro[4.5] decane-1,3-dione]",< 1
9,"COC(=O)c1ccc(C(=O)N2CCC3(CCC(=O)NC3=O)C2)cc1 (centres unmarked) [Example 28, methyl 4-(6,8-dioxo-2,7-diazaspiro[4.5]decane-2-carbonyl) benzoate]",13
10,"O=C1CCC2(CCN(c3nc4cc([N+](=O)[O-])ccc4[nH]3)C2)C(=O)N1 (single isomer, unassigned) [Example 33, 2-(5-nitro-1H-benzo[d]imidazol-2-yl)-2,7-diazaspiro[4.5] decane-6,8-dione]",< 1
11,"O=C1CCC2(CCN(C(=O)c3coc4ccccc34)C2)C(=O)N1 (centres unmarked) [Example 44, 2-(benzofuran-3-carbonyl)-2,7-diazaspiro[4.5] decane-6,8-dione]",9
12,"CC(C)(C)OC(=O)c1ccc(N2CCC3(CCC(=O)NC3=O)C2)nc1 (centres unmarked) [Example 24, tert-butyl 6-(6,8-dioxo-2,7-diazaspiro[4.5]decan-2-yl) nicotinate]",2
13,"O=C1NC(=O)C2(CCN(C(=O)[C@@H]3CCCc4ccccc43)CC2)N1 [Example 59, (R)-8-(1,2,3,4-tetrahydronaphthalene-1-carbonyl)-1,3,8-triazaspiro[4.5]decane-2,4-dione]",5
14,"O=C1NC(=O)C2(CCN(C(=O)[C@H]3CCCc4ccccc43)CC2)N1 [Example 58, (S)-8-(1,2,3,4-tetrahydronaphthalene-1-carbonyl)-1,3,8-triazaspiro[4.5]decane-2,4-dione]",4
15,"O=C1CCC2(CCN(C(=O)c3ccc4c(c3)NCC4)C2)C(=O)N1 (centres unmarked) [Example 41, 2-(indoline-6-carbonyl)-2,7-diazaspiro[4.5] decane-6,8-dione]",75
16,"CN1CC2(CCC(=O)NC2=O)CC1=O (centres unmarked) [Example 2, 2-methyl-2,7-diazaspiro[4.5] decane-3,6,8-trione]",159
17,"O=C1CCC2(CCN(c3nc4cnccc4s3)C2)C(=O)N1 (centres unmarked) [Example 20, 2-(thiazolo[4,5-c]pyridin-2-yl)-2,7-diazaspiro[4.5] decane-6,8-dione]",6
18,"CC(=O)N1CCc2cc(C(=O)N3CCC4(CCC(=O)NC4=O)C3)ccc21 (centres unmarked) [Example 52, 2-(1-acetylindoline-5-carbonyl)-2,7-diazaspiro[4.5] decane-6,8-dione]",41
19,"O=C1CC2(CCN(C(=O)[C@@H]3CCCc4ccccc43)CC2)C(=O)N1 (single isomer, unassigned) [Example 78]",4
20,"COC(=O)c1cccc2nc(N3CCC4(CCC(=O)NC4=O)C3)[nH]c12 (centres unmarked) [Example 13, methyl 2-(6,8-dioxo-2,7-diazaspiro[4.5]decan-2-yl)-1H-benzo[d]imidazole-7-carboxylate]",96
